From patent publication US20110144014A1, “CYTOKINE RECEPTOR MODULATORS AND USES THEREOF” (CENTRE HOSPITALIER UNIVERSITAIRE SAINTE-JUSTINE, priority 2005, published 2011)
Where a SMILES comes first, the peptide text is derived from it. [ ]: non-standard residue; d: D form.

Molecular target: T1, IL-1R (Rattus norvegicus, UniProt Q02955)
T1 construct: Thymocytes freshly isolated from rat thymus; endogenous in cells; host or cells: freshly isolated rat thymocytes
T1 sequence (Q02955 20-576): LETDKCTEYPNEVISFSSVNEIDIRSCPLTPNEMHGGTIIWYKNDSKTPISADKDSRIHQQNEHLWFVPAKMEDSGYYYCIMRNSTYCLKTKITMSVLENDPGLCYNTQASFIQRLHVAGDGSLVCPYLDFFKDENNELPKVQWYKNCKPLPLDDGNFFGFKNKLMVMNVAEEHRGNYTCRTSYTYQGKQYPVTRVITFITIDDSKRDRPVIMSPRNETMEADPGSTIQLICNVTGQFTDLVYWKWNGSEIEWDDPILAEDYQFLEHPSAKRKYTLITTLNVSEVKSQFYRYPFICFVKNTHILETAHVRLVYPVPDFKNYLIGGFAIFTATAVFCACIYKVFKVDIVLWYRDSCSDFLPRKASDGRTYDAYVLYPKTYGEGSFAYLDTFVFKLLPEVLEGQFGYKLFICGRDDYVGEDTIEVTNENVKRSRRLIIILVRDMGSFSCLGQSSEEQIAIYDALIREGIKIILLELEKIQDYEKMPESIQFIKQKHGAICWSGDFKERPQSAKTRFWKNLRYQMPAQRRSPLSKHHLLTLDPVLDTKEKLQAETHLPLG
T1 sequence (Q63621 21-570 partner): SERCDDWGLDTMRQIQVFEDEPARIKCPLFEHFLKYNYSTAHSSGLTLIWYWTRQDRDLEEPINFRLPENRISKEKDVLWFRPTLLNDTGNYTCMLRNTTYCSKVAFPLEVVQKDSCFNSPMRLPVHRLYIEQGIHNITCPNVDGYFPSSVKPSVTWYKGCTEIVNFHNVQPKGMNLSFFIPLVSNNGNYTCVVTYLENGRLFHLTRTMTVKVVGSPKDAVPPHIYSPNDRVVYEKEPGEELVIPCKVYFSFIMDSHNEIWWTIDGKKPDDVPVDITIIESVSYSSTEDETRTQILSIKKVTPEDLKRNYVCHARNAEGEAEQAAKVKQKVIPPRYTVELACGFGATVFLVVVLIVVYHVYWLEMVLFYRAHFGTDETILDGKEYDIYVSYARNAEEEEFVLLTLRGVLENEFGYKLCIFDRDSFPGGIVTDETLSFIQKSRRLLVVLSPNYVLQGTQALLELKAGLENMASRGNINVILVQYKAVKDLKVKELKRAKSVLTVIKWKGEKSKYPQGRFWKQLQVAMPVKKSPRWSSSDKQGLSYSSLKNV
Experiment: Cross-linking and radioligand binding of I125-API-101.10 on thymocytes
Excerpt: Thymocytes freshly isolated from rat thymus were resuspended at a concentration of 10^7 cell/ml in PBS (phosphate buffered saline) buffer pH 8.0 (reaction buffer) and washed three times with ice-cold reaction buffer. The reaction mixture for each sample contained: 10^6 cells and 10^7 cpm of 125API-101.10. One sample also contained […] of cold API-101.10 peptide. In the negative control HEK-293 cells containing a negligible amount of IL-1R were used. Each sample volume was then raised to 250 μl with reaction buffer. Samples were incubated at room temperature and/or 37° for 45 minutes to allow peptide binding. The non-permeable cross-linker BS3 (Bis(sulfosuccinimidyl)suberate) was then added to a final concentration of 2.5 mM and samples were incubated at 4° C. for 30 minutes to minimize active internalization of BS3 (11.4 Å) (Pierce) (Partis, J. Prot. Chem. 293:263-277, 1983; Cox et al., J. Immunol. 145:1719-1726, 1990; and Knoller et al., J. Biol. Chem. 266:2795-2804, 1991). The reaction was quenched with 20 mM TRIS pH 7.5 for 15 minutes at room temperature. Cells were centrifuged at 4000 rpm for 10 minutes, lysed for 30 minutes on ice with 150 μl of RIPA buffer (50 mM Tris HCl pH7.4; 150 mM NaCl; 1 mM EDTA; 2 mM Na3VO4; 1 mM NaF; 1% NP-40; 0.25% Nadeoxycholate). […] Radioactivity was determined is every cell lysate with a Packard CobraII autogamma counter.

## CC(C)C[C@@H](NC(=O)[C@@H](CCC(=O)O)NC(=O)[C@H](NC(=O)[C@H](NC(=O)[C@@H](Cc1ccc(O)cc1)NC(=O)[C@H](N)CCCNC(=N)N)[C@H](C)O)C(C)C)C(=O)N[C@H](C)C(N)=O [API-101.10, RYTVELA] (H-[dR][dY][dT][dV][dE][dL][dA]-NH2; N-terminus and C-terminus assumed)
I125-IL-1α 100 pM, 101.10 500 nM
  displacement of radioactive IL-1α: unable to displace
cross-linking, autoradiogram
  displacement of 125I-API-101.10 by non-radioactive peptide: displace almost all
